Results taken from ChEMBL document CHEMBL4808216, “Gut-Restricted Selective Cyclooxygenase-2 (COX-2) Inhibitors for Chemoprevention of Colorectal Cancer” (J Med Chem, 2021).
Converted amounts (≈) assume the structure as drawn.

Columns and labels:
[1] = target: T1, Prostaglandin G/H synthase 2 (Homo sapiens, UniProt P35354); experiment: Inhibition of human recombinant COX-2 assessed as reduction in peroxidase activity using arachidonic acid as substrate preincubated for 60 mins followed by substrate addition for 2 secs by ADPH based fluorometric analysis
T1 sequence (P35354 whole entry): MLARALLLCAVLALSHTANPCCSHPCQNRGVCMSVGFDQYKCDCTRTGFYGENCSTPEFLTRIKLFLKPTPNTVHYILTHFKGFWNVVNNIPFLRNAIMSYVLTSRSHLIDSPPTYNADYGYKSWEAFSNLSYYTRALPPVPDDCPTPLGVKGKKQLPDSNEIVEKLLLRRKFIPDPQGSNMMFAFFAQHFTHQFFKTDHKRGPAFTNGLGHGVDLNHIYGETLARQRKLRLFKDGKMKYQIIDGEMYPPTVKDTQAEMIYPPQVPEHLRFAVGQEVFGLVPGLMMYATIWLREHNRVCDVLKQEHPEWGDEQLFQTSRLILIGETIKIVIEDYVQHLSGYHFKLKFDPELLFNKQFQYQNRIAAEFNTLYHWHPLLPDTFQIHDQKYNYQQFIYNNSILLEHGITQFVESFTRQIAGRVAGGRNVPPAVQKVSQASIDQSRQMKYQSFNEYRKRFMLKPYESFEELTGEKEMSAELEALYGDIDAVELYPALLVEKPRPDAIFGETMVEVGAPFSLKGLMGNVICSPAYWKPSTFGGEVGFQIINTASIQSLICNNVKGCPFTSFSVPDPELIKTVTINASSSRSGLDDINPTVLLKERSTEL

[2] = target: T2, Prostaglandin G/H synthase 1 (Homo sapiens, UniProt P23219); experiment: Inhibition of human recombinant COX-1 assessed as reduction in peroxidase activity using arachidonic acid as substrate preincubated for 60 mins followed by substrate addition for 2 secs by ADPH based fluorometric analysis; type: ADME
T2 sequence (P23219 whole entry): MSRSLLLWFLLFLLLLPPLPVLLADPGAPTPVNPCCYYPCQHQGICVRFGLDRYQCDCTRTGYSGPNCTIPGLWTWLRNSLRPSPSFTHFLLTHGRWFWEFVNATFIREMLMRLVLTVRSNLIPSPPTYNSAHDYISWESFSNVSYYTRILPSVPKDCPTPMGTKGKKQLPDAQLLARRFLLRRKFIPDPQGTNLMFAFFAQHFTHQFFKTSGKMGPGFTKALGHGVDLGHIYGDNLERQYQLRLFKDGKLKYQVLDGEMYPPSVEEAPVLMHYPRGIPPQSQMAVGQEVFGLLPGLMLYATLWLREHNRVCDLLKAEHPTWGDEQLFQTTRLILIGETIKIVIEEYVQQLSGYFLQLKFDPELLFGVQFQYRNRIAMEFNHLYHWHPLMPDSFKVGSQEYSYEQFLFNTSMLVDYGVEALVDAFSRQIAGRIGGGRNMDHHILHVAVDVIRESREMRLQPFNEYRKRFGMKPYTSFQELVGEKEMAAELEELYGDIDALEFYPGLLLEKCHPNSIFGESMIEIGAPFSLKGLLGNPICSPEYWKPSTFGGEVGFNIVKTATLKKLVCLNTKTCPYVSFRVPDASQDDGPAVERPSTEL

[3] = target: T2, Prostaglandin G/H synthase 1; experiment: Inhibition of COX1 (unknown origin) expressed in HEK293 TRex cells assessed as reduction in PGE2 production using arachidonic acid as substrate preincubated for 60 mins followed by substrate addition for 1 hr in presence of 10% FBS by RapidFire High-Throughput Mass Spectrometry; type: ADME, cell-based, HEK293-T-REx
[4] = target: T1, Prostaglandin G/H synthase 2; experiment: Inhibition of COX2 (unknown origin) expressed in HEK293 TRex cells assessed as reduction in PGE2 production using arachidonic acid as substrate preincubated for 60 mins followed by substrate addition for 1 hr in presence of 10% FBS by RapidFire High-Throughput Mass Spectrometry; type: cell-based, HEK293-T-REx
[5] = Ratio of drug concentration in C57BL/6J mouse colon to plasma at 10 mg/kg, po measured after 4 hr by liquid chromatographic triple-quadrupole mass spectrometric method; type: ADME, organism-based; conditions: for Kp at 4 h: C57BL/6J, colon / plasma; for Ratio: other tissue, 10 mg/kg, 4 h
[6] = Drug concentration in C57BL/6J mouse plasma at 10 mg/kg, po administered as cassette dose measured at 4 hrs by LC/MS/MS analysis; type: ADME, organism-based
[7] = Drug concentration in C57BL/6J mouse colon at 10 mg/kg, po administered as cassette dose measured at 4 hrs by LC/MS/MS analysis; type: ADME, organism-based; conditions: read-out: Ct
[8] = Clearance in C57BL/6J mouse at 2 mg/kg, iv measured after 0.08 to 24 hrs; type: ADME, organism-based; conditions: in vivo, time 0.08-24 hrs
[9] = target: T2, Prostaglandin G/H synthase 1; experiment: Inhibition of COX1 in human whole blood assessed as reduction in calcium ionophore-stimulated TXB2 production incubated for 1 hr by ELISA; type: tissue-based
[10] = Protein binding in human colon assessed as unbound fraction; type: ADME, tissue-based
Homo sapiens = species: Homo sapiens; experiment: Selectivity ratio of IC50 for COX1 in human whole blood assessed as reduction in calcium ionophore-stimulated TXB2 production to IC50 for COX2 in human whole blood assessed as reduction in LPS stimulated PGE2 production; type: tissue-based
in vivo = conditions: C57BL/6J, mouse, colon / portal vein plasma, po, 10 mg/kg
Description: Ratio of drug concentration in C57BL/6J mouse colon to portal vein plasma at 10 mg/kg, po measured after 4 hr by liquid chromatographic triple-quadrupole mass spectrometric method

[11] = Equilibrium solubility of compound in FASSIF at pH 6.5; type: physicochemical
[12] = target: T1, Prostaglandin G/H synthase 2; experiment: Inhibition of COX2 in human whole blood assessed as reduction in LPS stimulated PGE2 production incubated for 1 hr by ELISA; type: tissue-based
[13] = target: T3, Prostaglandin G/H synthase 2 (Homo sapiens) (UniProt P35354)
T3 sequence (whole entry): T1 sequence (P35354 whole entry)
Description: Protein occupancy at human recombinant COX-2 assessed as dissociation half life

[14] = target: T1, Prostaglandin G/H synthase 2; experiment: Inhibition of human recombinant COX-2 using arachidonic acid as substrate preincubated for 60 mins followed by substrate addition for 2 secs by ADPH based fluorometric analysis
[15] = Protein binding in human plasma assessed as unbound fraction; type: ADME, cell-free
Mus musculus [16] = experiment: Chemo-protective activity in C57BL/6J mouse model of spontaneous GI-tract tumor Apc-min assessed as 18F-FDG uptake in ileum at 300 mg/kg, po incorporated into chow diet administered daily for 2 weeks and measured after 14 days by ex vivo PET imaging analysis relative to control; type: functional
[17] = Drug concentration in C57BL/6J mouse portal vein plasma at 10 mg/kg, po administered as cassette dose measured at 4 hrs by LC/MS/MS analysis; type: ADME, organism-based
[18] = Half life in human liver microsomes; type: ADME, Microsome
[19] = Half life in C57BL/6J mouse at 2 mg/kg, iv measured after 0.08 to 24 hrs; type: ADME, organism-based; conditions: C57BL/6J, in vivo, time 0.08-24 hrs
[20] = Half life in mouse liver microsomes; type: ADME, Microsome
[21] = Tmax in C57BL/6J mouse at 10 mg/kg, po administered as cassette dose measured at 4 hrs by liquid chromatographic triple-quadrupole mass spectrometric method; type: ADME, organism-based; conditions: in vivo
[22] = Half life in mouse hepatocytes; type: ADME, cell-based, Hepatocyte
[23] = Half life in human hepatocytes; type: ADME, cell-based, Hepatocyte
[24] = Volume of distribution at steady state in C57BL/6J mouse at 2 mg/kg, iv measured after 0.08 to 24 hrs; type: ADME, organism-based; conditions: C57BL/6J, in vivo, time 0.08-24 hrs, read-out: Vdss
Mus musculus [25] = experiment: Antitumor activity in C57BL/6J mouse model of spontaneous GI-tract tumor Apc-min assessed as reduction in total ileum polyp area at 300 mg/kg, po administered as suspension for 10 to 12 weeks; type: functional; conditions: time 10-12 weeks, read-out: TGI

Row | SMILES | IC50 [1] [µM] | IC50 [2] [µM] | IC50 [3] [µM] | IC50 [4] [µM] | Kp at 4 h [5] | concentration at 4 h [6] [ng/mL] | concentration at 4 h [7] [ng/g] | clearance [8] [mL/min/kg] | further results
1 | COCCOc1nc(OCC(C)(C)O)c(-c2ccc(S(C)(=O)=O)cc2)cc1CO | 18.2 | > 50 | > 50 | 2.95 |  |  |  |  | 
2 | CCCCOc1nc(OCC(C)(C)O)c(-c2ccc(S(C)(=O)=O)cc2)cc1COCCO |  |  | > 50 | 0.54 | 16.5 | 28.7 | 478 | 55.4 | 
3 | CCCCOc1nc(OCC(C)(C)O)c(-c2ccc(S(C)(=O)=O)cc2)cc1C(C)O (configuration not stated) |  |  | 7.69 | 2.34 | 134 | 22.8 | 2810 | 48.2 | 
4 | CCCCOc1nc(OCC2(O)COC2)c(-c2ccc(S(C)(=O)=O)cc2)cc1CO |  |  | > 50 | 1.32 |  | 7.7 | 11900 | 68.6 | Ratio [5]: 1596
5 | CCCCOc1nc(OCC(C)(C)O)c(-c2ccc(S(C)(=O)=O)cc2)cc1C(=O)O | > 50 |  |  |  |  |  |  |  | 
6 | CCCCOc1nc(OCC(C)(C)O)c(-c2ccc(S(C)(=O)=O)cc2)cc1C(C)(C)O |  |  | > 50 | 1.21 | 2.5 | 35.8 | 85.8 | 58.8 | 
7 | CC(C)Oc1nc(OCC(C)(C)O)c(-c2ccc(S(C)(=O)=O)cc2)cc1CO | 4.1 | > 50 | > 50 | > 50 |  |  |  |  | 
8 | CCCCOc1nc(OCC2(C)COC2)c(-c2ccc(S(C)(=O)=O)cc2)cc1CO |  |  | > 50 | 0.21 |  | 2 | 1850 | 89.3 | Ratio [5]: 1040
9 | CCCCOc1nc(OCC2(O)CCC2)c(-c2ccc(S(C)(=O)=O)cc2)cc1CO | 0.12 | > 50 | 7.23 | 0.037 | 545 | 9.9 | 5390 | 100 | IC50 [9]: > 60 µM; fraction unbound [10]: 0.055; Ratio IC50 (Homo sapiens): > 200; Kp at 4 h (in vivo): 69.9; solubility thermodynamic [11]: 56.1 µM (≈ 24.4 µg/mL); IC50 [12]: 0.146 µM; T1/2 [13]: 39 h; Ki [14]: 0.003 µM; fraction unbound [15]: 0.005; Activity (Mus musculus [16]): 61.2%; concentration at 4 h [17]: 82.4 ng/mL
10 | CC(C)(O)COc1ncc(C(F)(F)F)cc1-c1ccc(S(C)(=O)=O)cc1 | 0.39 | > 50 | > 50 | 1.5 | 0.9 | 9800 | 8400 | 0.54 | half-life [18]: > 3.07 h; half-life [19]: 38.5 h; half-life [20]: > 3.07 h; Tmax [21]: 3 h; half-life [22]: > 6.18 h; half-life [23]: > 6.18 h; Vd [24]: 1.55 L/kg
11 | COc1nc(OCC(C)(C)O)c(-c2ccc(S(C)(=O)=O)cc2)cc1CO | 17.1 | > 50 | > 50 | > 50 |  |  |  |  | 
12 | Cc1cnc(OCC(C)(C)O)c(-c2ccc(S(C)(=O)=O)cc2)c1 | 6.36 | > 50 | > 50 | 1.89 |  |  |  |  | 
13 | CC(C)(O)COc1ncc(CO)cc1-c1ccc(S(C)(=O)=O)cc1 | > 50 | > 50 | > 50 | > 50 |  |  |  |  | 
14 | CCc1cnc(OCC(C)(C)O)c(-c2ccc(S(C)(=O)=O)cc2)c1 | 3.24 | > 50 | > 50 | 0.95 | 2.5 | 21.8 | 51.6 | 65.6 | half-life [18]: 1.15 h; half-life [19]: 0.32 h; half-life [20]: 0.22 h; Tmax [21]: 0.25 h; half-life [22]: 0.0533 h; half-life [23]: 1.4 h; Vd [24]: 1.35 L/kg
15 | CCCCOc1nc(OCC(C)(C)O)c(-c2ccc(S(N)(=O)=O)cn2)cc1CO | 0.45 | > 50 | > 50 | 0.23 |  | 5.5 | 12000 |  | Ratio [5]: 2179; IC50 [9]: > 60 µM; fraction unbound [10]: 0.075; inhibition in vivo at 300 mg/kg (Mus musculus [25]): 25%; solubility thermodynamic [11]: 63.1 µM (≈ 26.8 µg/mL); IC50 [12]: 7.23 µM; T1/2 [13]: 23 h; Ki [14]: 0.019 µM; fraction unbound [15]: 0.002; Activity (Mus musculus [16]): 54.8%; concentration at 4 h [17]: 7.1 ng/mL
